Where “and” joins values, the source holds several entries; their conditions need not be identical. Equal entries are not always repeated.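 A five-concentration, 48-hour dose response in 96-well plates underlies each endpoint, interpolated linearly between surrounding concentrations. GI50: concentration for 50% inhibition of growth. At the TGI there is no net growth.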 Where a SMILES comes first, the peptide text is derived from it. [ ]: non-standard residue; d: D form. Ava = NCCCCC(=O)O; Mpa = O=C(O)CCS
Experiments:
Assay in all cases: NCI-60 cell line screen, 48 h
[1] = tested on: K-562 leukemia
[2] = tested on: SNB-75 CNS
[3] = tested on: HT29 colon
[4] = tested on: HCT-15 colon
[5] = tested on: SN12C renal
[6] = tested on: NCI-H23 lung
[7] = tested on: HCT-116 colon
[8] = tested on: A498 renal
[9] = tested on: UACC-62 melanoma
[10] = tested on: KM12 colon

| Compound | TGI [1] | TGI [2] [µM] | TGI [3] | TGI [4] [µM] | TGI [5] [µM] | TGI [6] [µM] | TGI [7] | TGI [8] [µM] | TGI [9] | TGI [10] | GI50 [9] [µM] | GI50 [1] [µM] | GI50 [3] [µM] | GI50 [10] [µM] | GI50 [4] [µM] | GI50 [5] [µM] | GI50 [6] [µM] | GI50 [7] [µM] | GI50 [8] [µM] |
| --- | --- | --- | --- | --- | --- | --- | --- | --- | --- | --- | --- | --- | --- | --- | --- | --- | --- | --- | --- |
| COP(=O)(OC)C(N)Cc1c[nH]c2ccccc12 (stereo not given) | > 100 µM | > 100 | > 100 µM | > 100 | > 100 | > 100 | > 100 µM | > 100 | – | – | – | – | – | – | – | – | – | – | – |
| O=C(NC(=S)Nc1ccc(Br)cc1)c1ccc2c(c1)Sc1ccccc1O2 | > 100 µM | 19.3 | > 100 µM | > 100 | > 100 | > 100 | > 100 µM | 66.5 | > 100 µM | > 100 µM | – | – | – | – | – | – | – | – | – |
| CS(=O)(=O)OCCN(CCOS(C)(=O)=O)c1ccc(C=Nc2ccc(-c3csc(Cc4ccccc4)n3)cc2)c(Cl)c1 | 76.9 µM | > 68.1 | 64.5 µM | > 87.8 | > 100 | 70.6 | 57.1 µM | 0.321 | > 47.7 µM | > 63.9 µM | – | – | – | – | – | – | – | – | – |
| O=C(N/N=C\c1ccc(Cl)cc1)Nc1ccc2ccccc2c1 | > 100 µM | 76.8 | > 100 µM | > 100 | > 100 | > 100 | > 100 µM | > 100 | > 100 µM | > 100 µM | – | – | – | – | – | – | – | – | – |
| CC(O)C(CO)NC(=O)C1CSSCC(NC(=O)C(N)Cc2ccccc2)C(=O)NC(Cc2ccccc2)C(=O)NC(Cc2c[nH]c3ccccc23)C(=O)NC(CCCCN)C(=O)NC(C(C)O)C(=O)N1 (stereo not given) | > 100 µM | > 100 | > 100 µM | > 100 | > 100 | > 100 | > 100 µM | > 100 | > 100 µM | > 100 µM | – | – | – | – | – | – | – | – | – |
| O=C1/C(=C/c2cccc([N+](=O)[O-])c2)N=C(c2ccccc2)N1c1nc2ccc(Sc3ccccc3)cc2[nH]1 | > 100 µM | > 100 | > 100 µM | > 100 | > 100 | > 100 | > 100 µM | > 100 | > 100 µM | > 100 µM | – | – | – | – | – | – | – | – | – |
| COc1ccc(C2CC(c3sc(Nc4ccc(C)cc4)nc3C)=NN2)cc1 (stereo not given) | 39.1 µM | 34.1 | 25.6 µM | 39.1 | 28.9 | 30.7 | 15.1 µM | 30.7 | > 55.3 µM | 29.5 µM | – | – | – | – | – | – | – | – | – |
| COc1ccc2[nH]c3ccc4cc[n+](CCN5CCC(C6CCN(CC[n+]7ccc8ccc9[nH]c%10ccc(OC)cc%10c9c8c7)CC6)CC5)cc4c3c2c1 | 1.41 µM and 7.67 µM | 50 | 31.4 µM and > 100 µM | – | 50 | > 100 | 50 µM and > 57.1 µM | > 53.8 | 50 µM and 17.7 µM | 50 µM and > 92.7 µM | 31 | 0.164 | 0.938 | 0.631 | 0.266 | 8.76 | 4.46 | 0.374 | > 50 |
| O=C(Nc1ccccc1C(=O)NCc1ccccc1)/C(=C/c1ccccc1O)NC(=O)c1ccccc1 | > 100 µM | 63.3 | > 100 µM | > 100 | > 100 | > 100 | > 100 µM | > 100 | > 100 µM | > 100 µM | – | – | – | – | – | – | – | – | – |
| CCCCn1c(=O)[nH]c2c(N)ncnc21 | > 100 µM | > 100 | > 100 µM | > 100 | > 100 | > 100 | > 100 µM | > 100 | > 100 µM | – | – | – | – | – | – | – | – | – | – |
| COc1cc2ncnc(NS(=O)(=O)c3cc4ccccc4s3)c2cc1OC | > 100 µM | > 100 | > 100 µM | > 100 | > 100 | > 100 | > 100 µM | > 100 | > 100 µM | > 100 µM | – | – | – | – | – | – | – | – | – |
| O=C(COc1cc(=O)oc2ccccc12)c1ccccc1 | > 100 µM | > 100 | 45.7 µM | > 100 | > 100 | 65.2 | 32 µM | > 100 | 44.1 µM | > 100 µM | – | – | – | – | – | – | – | – | – |
| COC(=O)C1(Cc2ccc3c(c2)CCC3)Cc2ccc3c(c2C1=O)CCC3 (stereo not given) | > 100 µM | > 55.5 | > 34.8 µM | > 40.5 | > 100 | > 71.6 | > 100 µM | 46.5 | > 48.5 µM | > 100 µM | – | – | – | – | – | – | – | – | – |
| COc1ccc2c(c1)/C(=C\c1c(Cl)nc3n1CCS3)C(=O)N2 | > 100 µM | 36.5 | 16.3 µM | 62.1 | 53.3 | 72.2 | 25.5 µM | 33.2 | 16.3 µM | 23.2 µM | – | – | – | – | – | – | – | – | – |
| CC1=NNC(=O)C1C1(C(=O)O)CC(c2c[nH]c3ccccc23)=NC(=S)N1 (stereo not given) | 73.9 µM | 62.9 | 78.9 µM | > 100 | > 100 | 56.8 | > 100 µM | > 100 | > 100 µM | 36.9 µM | – | – | – | – | – | – | – | – | – |
| CC(NC(=O)CCS)C(=O)NC(C)C(=O)NC(Cc1c[nH]c2ccccc12)C(=O)NC(Cc1c[nH]cn1)C(=O)NC(CO)C(=O)NC(Cc1c[nH]c2ccccc12)C(=O)NCCCCC(=O)NC(C)C(=O)NC(CCC(N)=O)C(=O)NC(CCCCN)C(=O)NC(C)C(=O)NC(CCCNC(=N)N)C(=O)NC(CCCCN)C(N)=O (stereo not given) ([Mpa]AAWHSW[Ava]AQKARK-NH2; configuration not given here) | 99.4 µM | > 100 | > 100 µM | > 100 | > 100 | > 100 | > 100 µM | > 100 | 52 µM | 88.7 µM | – | – | – | – | – | – | – | – | – |
| CN(C)N1C(=O)C(=O)N(c2cccc3ccccc23)C1=O | > 10 µM | > 10 | > 10 µM | > 10 | > 10 | > 10 | > 10 µM | > 10 | > 10 µM | > 10 µM | – | – | – | – | – | – | – | – | – |
| CCO/N=C\c1ccc2oc(-c3ccccc3)cc(=O)c2c1 | > 100 µM | 13.8 | 5.34 µM | 12.4 | 11.5 | 9.05 | 8.23 µM | 21.9 | 33.9 µM | 11.1 µM | – | – | – | – | – | – | – | – | – |
| O=C(CC(C(=O)c1ccsc1)c1cccs1)c1ccccc1 (stereo not given) | > 100 µM | > 100 | > 100 µM | > 100 | > 100 | 93.3 | > 100 µM | > 100 | > 100 µM | > 100 µM | – | – | – | – | – | – | – | – | – |
